In the assay the target is CDK2/Cyclin E kinase (Homo sapiens, UniProt P24941). In words: CDK2/Cyclin E Flashplate Assay: 96-Well Format. The format is biochemical. The conditions noted are these: streptavidin-coated flashplate; biotinylated-Rb peptide substrate 10 μM; 33P-ATP/ATP 1 μM; CDK2/Cyclin E 20 nM; 30 minutes at 30° C.; 1% DMSO. Here is the method:
Functional Measurements for Determination of IC50-Values
CDK2/Cyclin E Flashplate Assay: 96-Well Format
A 96-well streptavidin-coated flashplate was used to assay potency of compounds according formula (I) against CDK2/Cyclin E kinase. To carry out the assay, biotinylated-Rb peptide substrate (Biotin-[…]-OH) was solubilized at 1 mM in kinase buffer (Hepes 50 mM, NaCl 1 mM, MgCl2 5 mM pH 7.5) as a stock solution conserved at −20° C. in aliquots of 110 μl. The day of the experiment, an aliquot of this solution was thawed and diluted to 14.3 μM in kinase buffer, containing 1 mM dithiothreitol (DTT) added in the buffer at the same time.
70 μl of this solution was added in each well of the flashplate in order to achieve a final concentration of 10 μM (100 μl reactionnal volume). Serial dilutions of inhibitors were prepared in DMSO from 10 mM stock solutions in order to achieve 1000 μM, 333.3 μM, 111.1 μM, 37.03 μM, 12.35 μM, 4.11 μM and 1.37 μM and all were rediluted in kinase buffer+DTT in order to achieve 100 μM, 33.3 μM, 11.1 μM, 3.7 μM, 1.24 μM, 0.41 μM and 0.14 μM in DMSO 10% buffer (vol/vol). 10 μl of each, of these solutions (or 10 μl of buffer+DTT for controls) were transferred to the testplate wells in order to achieve 10 μM, 3.33 μM, 1.11 μM, 0.37 μM, 0.12 μM, 0.04. μM and 0.01 μM as final concentrations, 1% DMSO (vol/vol). In each well, 10 μl of a solution of a mix of ^33PyATP/ATP were added in order to achieve 1 μM final concentration and a total of 1 μCi. The kinase reaction was initiated by addition of 10 μl of a solution at 200 nM of CDK2/Cyclin E in kinase buffer+DTT (or buffer+DTT for blanks) in order to achieve 20 nM final concentration. After addition of each reagent, the test-plate was shakened. The plates were incubated 30 minutes at 30° C. with a shaking at 650 rpm. At the end of the incubation, the plates were washed 3 times with 300 μl of PBS (without calcium and magnesium) per well. The incorporation of ^33P to the peptide was measured by scintillation counting.

The source of these data is patent US7462613B2, “Pyridazinone derivatives as pharmaceuticals and pharmaceutical compositions containing them” (SANOFI-AVENTIS Deutschland GmbH, priority 2002, dated 2008).

pIC50: −log10 of the molar value.

In general, pIC50 refers to the IC50 on a negative log10 scale, so that one unit is a factor of ten. For `O=C(NCc1ccc(Cl)cc1Cl)c1cc(-c2ccncc2)n[nH]c1=O` [Example 2, N-(2,4-dichlorobenzyl)-3-oxo-6-pyridin-4-yl-2,3-dihydropyridazine-4-carboxamide], the pIC50 was 6.04.

For the molecule `O=C(NCc1ccc(Cl)cc1)c1cc(-c2ccncc2)n[nH]c1=O` [Example 4, N-(4-chlorobenzyl)-3-oxo-6-pyridin-4-yl-2,3-dihydropyridazine-4-carboxamide-6], the pIC50 is 6.24.

Take `CCOC(=O)CCNC(=O)c1cc(-c2ccncc2)n[nH]c1=O` [Example 13, Ethyl 3-[(3-oxo-6-pyridin-4-yl-2,3-dihydropyridazine-4-carbonyl)amino]propionate]: the pIC50 was 6.12.

Molecule `O=C(NCc1ccc(Cl)c(Cl)c1)c1cc(-c2ccncc2)n[nH]c1=O` [Example 16, N-(3,4-dichlorobenzyl)-3-oxo-6-pyridin-4-yl-2,3-dihydropyridazine-4-carboxamide] had a pIC50 of 6.76.

As to `O=C(NCc1ccc(O)cc1)c1cc(-c2ccncc2)n[nH]c1=O` [Example 18, N-(4-hydroxybenzyl)-3-oxo-6-pyridin-4-yl-2,3-dihydropyridazine-4-arboxamide], the pIC50 was 6.27.

In turn, `O=C(NCCCCO)c1cc(-c2ccncc2)n[nH]c1=O` [Example 31, 3-Oxo-6-pyridin-4-yl-2,3-dihydro-pyridazine-4-carboxylic acid (4-hydroxy-butyl)-amide] gave a pIC50 of 6.24.

As to `CNc1nccc(-c2cc(C(=O)NCc3ccc(Cl)cc3)c(=O)[nH]n2)n1` [Example 34, 6-(2-Methylamino-pyrimidin-4-yl)-3-oxo-2,3-dihydro-pyridazine-4-carboxylic acid 4-chloro-benzylamide], the pIC50 is 7.52.

Molecule `O=C(NCc1ccc(Cl)cc1)c1cc(-c2cn[nH]c2)n[nH]c1=O` [Example 39, 3-Oxo-6-(1H-pyrazol-4-yl)-2,3-dihydro-pyridazine-4-carboxylic acid 4-chloro-benzylamide] gave a pIC50 of 6.46.

Molecule `O=C(NCc1ccc(Cl)cc1)c1cc(-c2ccc(O)cc2)n[nH]c1=O` [Example 40, 6-(4-Hydroxy-phenyl)-3-oxo-2,3-dihydro-pyridazine-4-carboxylicacid 4-chloro-benzylamide] showed a pIC50 of 6.92.

Regarding `COc1cc(-c2cc(C(=O)NCc3ccc(Cl)cc3)c(=O)[nH]n2)ccc1O` [Example 41, 6-(4-Hydroxy-3-methoxy-phenyl)-3-oxo-2,3-dihydro-pyridazine-4-carboxylic acid 4-chloro-benzylamide], the negative-log IC50 (pIC50) is 6.83.

In the case of `COc1cc(-c2cc(C(=O)NCCCc3cccnc3)c(=O)[nH]n2)ccc1O` [Example 49, 6-(4-Hydroxy-3-methoxy-phenyl)-3-oxo-2,3-dihydro-pyridazine-4-carboxylic acid (3-pyridin-3-yl-propyl)-amide], the negative-log IC50 (pIC50) is 6.76. This pIC50 and that of the molecule before are within 0.2 log units of each other.

`O=C(NCCCc1ccccc1)c1cc(-c2ccncc2)n[nH]c1=O` [Example 66, 3-Oxo-6-pyridin-4-yl-2,3-dihydro-pyridazine-4-carboxylic acid (3-phenyl-propyl)-amide; compoundwith trifluoro-acetic acid] had a pIC50 of 6.28.

With `O=C(NCc1ccc(Br)cc1)c1cc(-c2ccncc2)n[nH]c1=O` [Example 75, 3-Oxo-6-pyridin-4-yl-2,3-dihydro-pyridazine-4-carboxylic acid 4-bromo-benzylamide; compoundwith trifluoro-acetic acid], the pIC50 was 6.10.

`COc1ccc(CNC(=O)c2cc(-c3ccncc3)n[nH]c2=O)cc1` [Example 83, 3-Oxo-6-pyridin-4-yl-2,3-dihydro-pyridazine-4-carboxylic acid 4-methoxy-benzylamide;compound with trifluoro-acetic acid] had a pIC50 of 6.26.

For `O=C(NCc1ccc2c(c1)OCO2)c1cc(-c2ccncc2)n[nH]c1=O` [Example 84, 3-Oxo-6-pyridin-4-yl-2,3-dihydro-pyridazine-4-carboxylic acid(benzo[1,3]dioxol-5-ylmethyl)-amide;compound with trifluoro-acetic acid], the pIC50 was 6.66. This pIC50 is 0.40 log units higher than that of the molecule before.

`O=C(NCc1ccc(F)c(Br)c1)c1cc(-c2ccncc2)n[nH]c1=O` [Example 93, 3-Oxo-6-pyridin-4-yl-2,3-dihydro-pyridazine-4-carboxylic acid 3-bromo-4-fluoro-benzylamide;compound with trifluoro-acetic acid] gave a pIC50 of 6.46.

Molecule `CS(=O)(=O)c1ccc(CNC(=O)c2cc(-c3ccncc3)n[nH]c2=O)cc1` [Example 98, 3-Oxo-6-pyridin-4-yl-2,3-dihydro-pyridazine-4-carboxylic acid 4-methanesulfonyl-benzylamide; compoundwith trifluoro-acetic acid] showed a pIC50 of 6.18.

Regarding `O=C(NCCc1ccccc1Cl)c1cc(-c2ccncc2)n[nH]c1=O` [Example 103, 3-Oxo-6-pyridin-4-yl-2,3-dihydro-pyridazine-4-carboxylic acid [2-(2-chloro-phenyl)-ethyl]-amide; compound withtrifluoro-acetic acid], the pIC50 is 6.79.

`O=C(NCc1ccc(C(F)(F)F)cc1)c1cc(-c2ccncc2)n[nH]c1=O` [Example 112, 3-Oxo-6-pyridin-4-yl-2,3-dihydro-pyridazine-4-carboxylic acid 4-trifluoromethyl-benzylamide; compoundwith trifluoro-acetic acid] showed a pIC50 of 6.44.

Take `O=C(NCc1ccc(Cl)cc1F)c1cc(-c2ccncc2)n[nH]c1=O` [Example 116, 3-Oxo-6-pyridin-4-yl-2,3-dihydro-pyridazine-4-carboxylic acid 4-chloro-2-fluoro-benzylamide;compound with trifluoro-acetic acid]: the pIC50 was 6.10.

`O=C(NCc1ccc(F)cc1)c1cc(-c2ccncc2)n[nH]c1=O` [Example 125, 3-Oxo-6-pyridin-4-yl-2,3-dihydro-pyridazine-4-carboxylic acid 4-fluoro-benzylamide; compoundwith trifluoro-acetic acid] had a pIC50 of 6.28.

Molecule `Cc1ccc(CNC(=O)c2cc(-c3ccncc3)n[nH]c2=O)s1` [Example 139, 3-Oxo-6-pyridin-4-yl-2,3-dihydro-pyridazine-4-carboxylic acid (5-methyl-thiophen-2-ylmethyl)-amide; compound withtrifluoro-acetic acid] gave a pIC50 of 6.45. The pIC50 values of the last two molecules are within 0.2 log units of each other.

`O=C(NCc1ccc(Cl)s1)c1cc(-c2ccncc2)n[nH]c1=O` [Example 142, 3-Oxo-6-pyridin-4-yl-2,3-dihydro-pyridazine-4-carboxylic acid (5-chloro-thiophen-2-ylmethyl)-amide; compound withtrifluoro-acetic acid] gave a pIC50 of 6.45.

The molecule `O=C(NCCCc1cccnc1)c1cc(-c2ccc(O)cc2)n[nH]c1=O` [Example 164, 6-(4-Hydroxy-phenyl)-3-oxo-2,3-dihydro-pyridazine-4-carboxylicacid (3-pyridin-3-yl-propyl)-amide] gave a pIC50 of 6.88.

Take `C[C@@H](Nc1nccc(-c2cc(C(=O)NCCCc3cccnc3)c(=O)[nH]n2)n1)c1ccccc1` [Example 167, R-3-Oxo-6-[2-(1-phenyl-ethylamino)-pyrimidin-4-yl]-2,3-dihydro-pyridazine-4-carboxylic acid (3-pyridin-3-yl-propyl)-amide]: the pIC50 was 6.90.

The molecule `O=C(NCc1ccc(Cl)cc1)c1cc(-c2ccnc(NCCN3CCOCC3)n2)n[nH]c1=O` [Example 175, 6-[2-(2-Morpholin-4-yl-ethylamino)-pyrimidin-4-yl]-3-oxo-2,3-dihydro-pyridazine-4-carboxylicacid 4-chloro-benzylamide; compoundwith trifluoro-acetic acid] showed a pIC50 of 7.57.

Molecule `O=C(NCc1ccc(Cl)cc1)c1cc(-c2ccc(O)c(Cl)c2)n[nH]c1=O` [Example 180, 6-(3-Chloro-4-hydroxy-phenyl)-3-oxo-2,3-dihydro-pyridazine-4-carboxylic acid 4-chloro-benzylamide] gave a pIC50 of 6.76.

`O=C(NCc1ccc(Cl)cc1)c1cc(-c2cc(F)c(O)c(F)c2)n[nH]c1=O` [Example 182, 6-(3,5-Difluoro-4-hydroxy-phenyl)-3-oxo-2,3-dihydro-pyridazine-4-carboxylic acid 4-chloro-benzylamide] showed a pIC50 of 6.33.

Molecule `O=C(NCc1ccc(Cl)cc1)c1cc(-c2ccc(O)c(F)c2)n[nH]c1=O` [Example 183, 6-(3-Fluoro-4-hydroxy-phenyl)-3-oxo-2,3-dihydro-pyridazine-4-carboxylic acid 4-chloro-benzylamide] had a pIC50 of 6.99. This pIC50 lies 0.66 log units higher than the previous one.
